DBAASP
≈ marks a conversion by molar mass, not a printed value.

Tests used:
Test in all cases: ≥ marks a high value that may be exact or a test limit, other limits are often not marked, values filed in µg/mL are converted to µM
[1] = test system: Escherichia coli ATCC 25726
[2] = test system: Staphylococcus aureus ATCC 25923
[3] = test system: Candida albicans ATCC 90028
[4] = test system: Escherichia coli ATCC 8739
[5] = test system: Staphylococcus aureus ATCC 43300
[6] = test system: Staphylococcus aureus ATCC 6538

Compound: CC[C@H](C)[C@H](NC(=O)[C@H](C)NC(=O)[C@@H](NC(=O)[C@H](C)NC(=O)CNC(=O)[C@H](CCCCN)NC(=O)[C@@H](NC(=O)[C@H](C)NC(=O)CNC(=O)[C@H](CCCCN)NC(=O)[C@H](CC(C)C)NC(=O)[C@@H](NC(=O)[C@H](CCCCN)NC(=O)[C@H](CCCCN)NC(=O)[C@H](CC(C)C)NC(=O)[C@@H](NC(=O)[C@H](CC(=O)O)NC(=O)[C@H](CCCCN)NC(=O)[C@@H](NC(=O)[C@H](CCC(=O)O)NC(=O)[C@@H]1CCCN1C(=O)[C@H](CO)NC(=O)[C@H](CC(C)C)NC(=O)[C@H](CCCCN)NC(=O)[C@@H](N)CC(C)C)[C@@H](C)O)[C@@H](C)O)C(C)C)[C@@H](C)CC)[C@@H](C)CC)C(=O)N[C@@H](C)C(=O)N[C@@H](CO)C(=O)N[C@@H](CC(C)C)C(=O)N[C@@H](C)C(N)=O [LKLSPETKDTLKKVLKGAIKGAIAIASLA]
- MIC [1]: ≥ 40 µM
- MIC [2]: 5 µM (≈ 14.9 µg/mL)

Compound: CC[C@H](C)[C@H](NC(=O)[C@H](CCCCN)NC(=O)[C@@H](NC(=O)[C@@H](NC(=O)[C@H](CCCCN)NC(=O)CNC(=O)[C@H](CC(C)C)NC(=O)[C@@H](NC(=O)[C@H](CO)NC(=O)CNC(=O)[C@H](C)NC(=O)[C@H](CCCCN)NC(=O)[C@H](CO)NC(=O)[C@H](C)NC(=O)[C@H](CCSC)NC(=O)CN)C(C)C)[C@@H](C)CC)[C@@H](C)O)C(=O)N[C@@H](C)C(=O)N[C@@H](CC(C)C)C(=O)NCC(=O)N[C@@H](C)C(=O)N[C@@H](CC(C)C)C(N)=O [GMASKAGSVLGKITKIALGAL]
- MIC [3]: ≥ 50 µM
- MIC [1]: 12.5 µM (≈ 24.8 µg/mL)
- MIC [2]: 100 µM (≈ 199 µg/mL)

Compound: CC[C@H](C)[C@H](NC(=O)[C@H](CCCCN)NC(=O)[C@@H](NC(=O)[C@H](CO)NC(=O)[C@H](CC(N)=O)NC(=O)[C@H](Cc1c[nH]c2ccccc12)NC(=O)[C@H](CC(C)C)NC(=O)CN)[C@@H](C)CC)C(=O)N[C@@H](C)C(=O)NCC(=O)N[C@@H](CCCCN)C(=O)N[C@@H](CCCCN)C(=O)N[C@@H](CC(C)C)C(=O)N[C@@H](Cc1ccccc1)C(=O)N[C@H](C(=O)N[C@@H](CC(N)=O)C(=O)N[C@H](C(=O)N[C@@H](CC(C)C)C(=O)N[C@@H](CC(=O)O)C(=O)N[C@@H](CCCCN)C(=O)N[C@H](C(=O)N[C@@H](CCCN=C(N)N)C(=O)N[C@H]1CSSC[C@@H](C(=O)N[C@@H](CCCCN)C(=O)N[C@H](C(=O)N[C@@H](CO)C(=O)N2CCC[C@H]2C(=O)N[C@@H](CC(=O)O)C(=O)N[C@H](C(=O)N[C@@H](CCC(=O)O)C(=O)O)C(C)C)[C@@H](C)O)NC(=O)CNC(=O)CNC(=O)[C@H](C)NC(=O)[C@H](C(C)C)NC(=O)[C@H](CCCCN)NC1=O)[C@@H](C)CC)C(C)C)C(C)C [GLWNSIKIAGKKLFVNVLDKIRCKVAGGCKTSPDVE]
- MIC [4]: 6.3 µM (≈ 24.5 µg/mL)
- MIC [5]: 100 µM (≈ 389 µg/mL)
- MIC [6]: 6.3 µM (≈ 24.5 µg/mL)

Compound: CC[C@H](C)[C@@H]1NC(=O)[C@@H]2CCCN2C(=O)[C@H](CC(C)C)NC(=O)[C@@H]2CCCN2C(=O)[C@H]([C@@H](C)CC)NC(=O)[C@H](Cc2c[nH]c3ccccc23)NC(=O)[C@H](CO)NC(=O)[C@@H](NC(=O)[C@@H](NC(=O)[C@@H](N)CCCN=C(N)N)C(C)C)CSSC[C@@H](C(=O)N[C@@H](Cc2cnc[nH]2)C(N)=O)NC1=O [RVCSWIPLPICH]
- MIC [1]: ≥ 500 µM
- MIC [2]: 250 µM (≈ 355 µg/mL)
